Structures can show the parent of a compound that is named as a salt.
Assays:
β3 -adrenergic receptor = target: T1, β3 -adrenergic receptor (Rattus norvegicus, UniProt P26255); test: Lipolysis (β3-effect): stimulation of adipocyte lipolysis, glycerol release; type: cell-based; settings: rat epididymal adipocytes, 30 minutes, 37° C.; concentration giving 50% of the maximum rate of lipolysis of that compound
T1 construct: Rat epididymal fat pads are excised and placed in 0.9% saline; from tissue; host or cells: rat epididymal fat pads, collagenase-isolated adipocytes
Experimental: (§1) Selectivity of a compound is determined using the following procedures.
The β3 -effect of the compounds is determined by their ability to stimulate adipocyte lipolysis. Rat epididymal fat pads are excised and placed in 0.9% saline. Four grams of tissue is transferred to a flask with 20 ml of aerated KrebsHenseleit bicarbonate (KHB) buffer containing 3% fatty acid-free bovine serum albumin to which 75 mg of crude bacterial collagenase (Worthington) has been added. The tissue is incubated for about 45 minutes at 37° C. with gentle shaking. The cells are then washed three times with two volumes of KHB buffer, filtered through two layers of gauze, and brought to a final volume of 80 ml with KHB buffer. One-ml-aliquots of the cell suspension is added to plastic test tubes containing the appropriate additions of vehicle or compound. The cells are gassed for 1 minute with 95% O2 -5% CO2, capped, and incubated at 37° C. with continuous shaking for a total of 30 minutes. The reaction is stopped by adding 0.1 ml of 30 % perchloric acid and 0.1 ml of chloroform. […] The amount of glycerol generated from the hydrolysis of endogenous triglycerides is determined in a coupled-enzyme spectrophotometric assay. […] The amount of NADH generated, which is proportional to the amount of glycerol, is determined by the increase in absorbance at 340 nm. […]

β1 -adrenergic receptor [1] = target: T2, β1 -adrenergic receptor (Rattus norvegicus, UniProt P18090); test: Heart Binding (β1): binding assay with membranes from rat heart; settings: rat heart membranes, [^125 I]iodo-cyanopindolol, 1 hour
T2 construct: membranes from rat heart; from tissue; host or cells: rat heart membranes
Experimental: as §1
(§2) Binding assays for β1 -effect are carried out by the use of membranes from rat heart, and β2 -effect by the use of membranes from rat lung by the method described in Neve, et. al., J. Pharmacol. Exp. Ther., 1985, 235, 657-664 with the following exceptions:
(§3) 1. the incubation volume is 0.5 ml,
(§4) 2. the incubation time is 1 hour,
(§5) 3. the radioligand is [^125 I]iodo-cyanopindolol,
(§6) 4. (--) - isoproterenol (50 μM) is used to define […], and
(§7) 5. the filters are washed at 4° C.

β1 -adrenergic receptor [2] = test: as above; settings: β3 lipolysis vs β1 heart binding
Experimental: as §1, §2, §3, §4, §5, §6, §7

β2 [3] = target: T3, β2 (Rattus norvegicus, UniProt P10608); test: Lung Binding (β2): binding assay with membranes from rat lung; settings: rat lung membranes, [^125 I]iodo-cyanopindolol, 1 hour
T3 construct: membranes from rat lung; from tissue; host or cells: rat lung membranes
Experimental: as §1, §2, §3, §4, §5, §6, §7

β2 [4] = test: as above; settings: printed β3; Table 1 indicates β2 (lung binding)
Experimental: as §1, §2, §3, §4, §5, §6, §7

T3 sequence (P10608 whole entry): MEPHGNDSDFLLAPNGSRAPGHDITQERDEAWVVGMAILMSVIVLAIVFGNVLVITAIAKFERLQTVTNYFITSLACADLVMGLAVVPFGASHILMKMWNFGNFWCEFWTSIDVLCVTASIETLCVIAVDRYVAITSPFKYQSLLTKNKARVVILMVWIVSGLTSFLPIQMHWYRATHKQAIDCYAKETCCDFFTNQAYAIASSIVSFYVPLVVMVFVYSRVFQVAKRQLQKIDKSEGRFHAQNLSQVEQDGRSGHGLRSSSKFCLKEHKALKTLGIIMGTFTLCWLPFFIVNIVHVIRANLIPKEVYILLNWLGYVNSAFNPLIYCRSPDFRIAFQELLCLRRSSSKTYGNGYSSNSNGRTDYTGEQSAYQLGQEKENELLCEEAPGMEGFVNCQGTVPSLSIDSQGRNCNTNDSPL
T2 sequence (P18090 whole entry): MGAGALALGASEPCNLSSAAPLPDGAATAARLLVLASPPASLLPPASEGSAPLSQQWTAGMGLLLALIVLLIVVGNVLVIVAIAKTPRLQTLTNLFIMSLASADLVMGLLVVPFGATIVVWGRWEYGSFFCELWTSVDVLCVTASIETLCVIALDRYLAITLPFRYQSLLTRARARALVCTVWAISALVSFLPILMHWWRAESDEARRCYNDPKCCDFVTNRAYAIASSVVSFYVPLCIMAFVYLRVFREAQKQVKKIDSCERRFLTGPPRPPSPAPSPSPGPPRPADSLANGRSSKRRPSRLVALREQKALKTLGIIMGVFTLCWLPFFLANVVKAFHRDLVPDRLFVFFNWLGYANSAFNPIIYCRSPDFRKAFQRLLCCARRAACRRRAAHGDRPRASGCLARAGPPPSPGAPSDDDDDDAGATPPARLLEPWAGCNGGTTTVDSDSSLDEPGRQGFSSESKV
T1 sequence (P26255 whole entry): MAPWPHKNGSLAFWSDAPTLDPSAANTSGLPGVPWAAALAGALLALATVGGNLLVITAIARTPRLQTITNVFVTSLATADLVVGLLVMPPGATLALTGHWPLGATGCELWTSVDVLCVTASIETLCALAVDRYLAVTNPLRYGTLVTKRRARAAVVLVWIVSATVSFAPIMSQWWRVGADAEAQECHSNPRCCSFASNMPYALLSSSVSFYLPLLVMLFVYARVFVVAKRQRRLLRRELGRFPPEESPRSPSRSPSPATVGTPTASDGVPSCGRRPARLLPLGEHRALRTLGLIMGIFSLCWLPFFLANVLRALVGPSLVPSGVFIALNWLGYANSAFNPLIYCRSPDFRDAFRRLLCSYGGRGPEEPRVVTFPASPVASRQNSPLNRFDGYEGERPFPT

C[C@H](Cc1ccc2c(c1)OC(C(=O)O)(C(=O)O)O2)NCC(O)COc1cccc2ccccc12 (mixture of isomers) [Example 1, (R,R) and (S,R)-5-[2-[[2-Hydroxy-3-(1-naphthalenyloxy)propyllamino]propyl-1,3-benzodioxole-2,2-dicarboxylic acid, disodium salt]
EC50 (β3 -adrenergic receptor): 0.264 µM
IC50 (β1 -adrenergic receptor [1]): 1.52 µM
selectivity for the β3 -adrenergic receptor over the β1 -adrenergic receptor (β1 -adrenergic receptor [2]): shows selectivity
IC50 (β2 [3]): 0.36 µM
selectivity when compared to the β3 -receptor (β2 [4]): not selective

Reference: patent US5480908A, “β3 -adrenergic agents benzodioxole dicarboxylates and their use in pharmaceutical compositions” (American Cyanamid Company, priority 1993, dated 1996)
